Source: publication PMC12679550 (ACS Chemical Neuroscience, 2025)
Read-outs that look alike come from different tables or passages of the source.

Legend:
[1] = biological target: T1, α2AR (Homo sapiens, UniProt P08913)
T1 sequence (P08913 1-465): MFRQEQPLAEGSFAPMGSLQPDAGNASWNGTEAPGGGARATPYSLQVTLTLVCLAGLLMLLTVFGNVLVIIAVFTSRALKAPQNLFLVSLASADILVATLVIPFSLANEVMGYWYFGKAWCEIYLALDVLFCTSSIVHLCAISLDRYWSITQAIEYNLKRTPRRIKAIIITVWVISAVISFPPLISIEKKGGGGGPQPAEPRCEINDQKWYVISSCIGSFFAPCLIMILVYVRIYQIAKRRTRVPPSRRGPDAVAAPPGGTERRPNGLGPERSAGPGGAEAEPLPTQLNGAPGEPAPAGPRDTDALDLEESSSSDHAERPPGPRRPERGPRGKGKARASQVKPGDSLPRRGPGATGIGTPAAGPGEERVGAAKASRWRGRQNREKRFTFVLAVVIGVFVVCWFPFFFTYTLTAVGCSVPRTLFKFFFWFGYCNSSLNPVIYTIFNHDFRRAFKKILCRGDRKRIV

[2] = test system: pERK in nontransfected HEK293 cells; test: ERK phosphorylation in nontransfected, knockout and antagonist-cotreated HEK293 cells; type: cell-based, human
Description: Cells were serum-starved for 75 min and treated with ligands in 1 mL of fresh DMEM in the absence of serum as described in the figure legends. Cells were washed three times with ice-cold phosphate-buffered saline, lysed on ice in Radio-Immunoprecipitation Assay buffer, centrifuged to clarify the supernatant, normalized to protein concentration, and boiled in Laemmli sample buffer. Following sodium dodecyl sulfate–polyacrylamide gel electrophoresis, gels were transferred, blocked in 5% BSA and incubated with 1:1000 rabbit phospho-ERK1/2 (#9101, Cell Signaling Technology, Danvers, MA) and imaged with enhanced chemiluminescence (ECL). Blots were stripped and reprobed with rabbit ERK1/2 (#9102, Cell Signaling Technology) antibody and imaged with ECL to assess protein loading.

[3] = biological target: T1, α2AR; remark: listed apart in the source
[4] = biological target: T2, rat α2AR (Rattus norvegicus, UniProt P22909); settings: agonist mode; CHO-K1 cells
T2 sequence (P22909 1-465): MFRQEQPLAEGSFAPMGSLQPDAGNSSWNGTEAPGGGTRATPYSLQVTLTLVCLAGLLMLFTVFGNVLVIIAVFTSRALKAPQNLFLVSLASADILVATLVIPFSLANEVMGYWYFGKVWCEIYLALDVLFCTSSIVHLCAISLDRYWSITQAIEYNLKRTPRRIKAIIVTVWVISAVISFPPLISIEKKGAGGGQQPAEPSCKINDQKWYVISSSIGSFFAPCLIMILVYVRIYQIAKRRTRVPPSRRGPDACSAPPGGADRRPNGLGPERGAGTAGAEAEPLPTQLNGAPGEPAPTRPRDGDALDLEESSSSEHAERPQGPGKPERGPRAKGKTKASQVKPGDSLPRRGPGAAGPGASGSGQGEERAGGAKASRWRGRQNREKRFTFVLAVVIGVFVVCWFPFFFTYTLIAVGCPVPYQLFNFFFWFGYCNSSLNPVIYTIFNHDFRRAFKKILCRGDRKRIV

[5] = biological target: T3, serotonin transporter (Homo sapiens, UniProt P31645); test: Eurofins Cerep radioligand binding screen; settings: 10 μM
T3 construct: Eurofins Cerep; host or cells: cell membrane homogenates
T3 sequence (P31645 whole entry): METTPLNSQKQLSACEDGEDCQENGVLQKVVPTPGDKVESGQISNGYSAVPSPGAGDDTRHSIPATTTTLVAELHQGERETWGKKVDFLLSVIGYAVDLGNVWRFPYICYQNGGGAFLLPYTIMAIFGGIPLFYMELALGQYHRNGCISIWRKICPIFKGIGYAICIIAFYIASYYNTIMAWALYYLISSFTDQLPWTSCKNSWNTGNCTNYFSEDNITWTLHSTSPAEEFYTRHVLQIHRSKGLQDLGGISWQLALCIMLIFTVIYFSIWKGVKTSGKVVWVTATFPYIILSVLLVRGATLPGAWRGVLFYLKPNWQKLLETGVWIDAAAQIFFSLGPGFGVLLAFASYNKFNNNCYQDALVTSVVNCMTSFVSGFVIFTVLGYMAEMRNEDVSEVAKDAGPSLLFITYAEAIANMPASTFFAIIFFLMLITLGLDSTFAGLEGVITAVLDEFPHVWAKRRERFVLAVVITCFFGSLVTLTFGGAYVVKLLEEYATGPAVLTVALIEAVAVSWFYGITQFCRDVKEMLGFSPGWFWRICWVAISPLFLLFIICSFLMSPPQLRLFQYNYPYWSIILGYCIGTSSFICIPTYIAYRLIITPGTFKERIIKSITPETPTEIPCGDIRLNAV
Description: (§1) The compounds were screened at each target once, in duplicate, at 100 nM and 10 μM. […] The assay was valid if the reliability criteria, K i or IC50 values within 1/2 Log of historical values, were met. Radioligand binding assay methods were as previously described with only minor modifications , (see table in Supplementary Figure S4 for radioligands, protein sources, and assay test conditions). Briefly, cell membrane homogenates were incubated with either an antagonist or agonist radioligand in the absence or presence of the test compound in a buffer. A specific unlabeled agonist or antagonist at the target determined nonspecific binding. Following incubation, the samples were filtered rapidly under vacuum through glass fiber filters presoaked in a buffer and rinsed several times with an ice-cold buffer using a 48-sample or 96-sample cell harvester. Using a scintillation cocktail, the filters were counted for radioactivity in a scintillation counter. Compound binding was calculated as a percent inhibition of the binding of the radioactively labeled ligand specific for each target. Preparatory methods for enzyme inhibition assays were similar to radioligand binding assays. These assays involved using a known substrate, stimulus, and/or tracer, and detection methods included LANCE, fluorimetry, photometry, luminescence, or scintillation counting (see table in Supplementary Figure S4). Results of the screening assays showing an inhibition or stimulation higher than 50% were designated “hits” and considered to represent significant effects of the test compounds.

[6] = biological target: T4, D2-dopamine receptors (Homo sapiens, UniProt P14416); test: Eurofins Cerep radioligand binding screen; settings: 10 μM
T4 construct: Eurofins Cerep; host or cells: cell membrane homogenates
T4 sequence (P14416 whole entry): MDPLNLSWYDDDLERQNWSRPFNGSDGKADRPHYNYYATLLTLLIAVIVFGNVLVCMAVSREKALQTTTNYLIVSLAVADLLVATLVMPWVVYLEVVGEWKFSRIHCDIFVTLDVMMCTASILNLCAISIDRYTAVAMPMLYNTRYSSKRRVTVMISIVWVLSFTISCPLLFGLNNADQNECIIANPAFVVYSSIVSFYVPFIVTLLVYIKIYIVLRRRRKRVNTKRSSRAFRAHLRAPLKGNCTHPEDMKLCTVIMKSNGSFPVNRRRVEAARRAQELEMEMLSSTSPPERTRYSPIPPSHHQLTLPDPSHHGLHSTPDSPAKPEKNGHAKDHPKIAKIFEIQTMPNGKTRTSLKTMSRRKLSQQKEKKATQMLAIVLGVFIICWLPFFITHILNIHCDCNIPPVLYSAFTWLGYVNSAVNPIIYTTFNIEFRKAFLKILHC
Description: as §1

[7] = biological target: T5, β2-adrenoceptors (Homo sapiens, UniProt P07550); test: Eurofins Cerep radioligand binding screen; settings: 10 μM
T5 construct: Eurofins Cerep; host or cells: cell membrane homogenates
Description: as §1

[8] = biological target: T6, D3-dopamine receptors (Homo sapiens, UniProt P35462); test: Eurofins Cerep radioligand binding screen; settings: 10 μM
T6 construct: Eurofins Cerep; host or cells: cell membrane homogenates
Description: as §1

[9] = biological target: T7, hERG potassium channels (Homo sapiens, UniProt Q12809); test: Eurofins Cerep radioligand binding screen; settings: 10 μM
T7 construct: Eurofins Cerep; host or cells: cell membrane homogenates
Description: as §1

[10] = test system: L-type Ca2+ channels; test: Eurofins Cerep radioligand binding screen; settings: rat cerebral cortex; Figure S6
Description: as §1

[11] = biological target: T8, N-type Ca2+ channels (Rattus norvegicus, UniProt Q02294); test: Eurofins Cerep radioligand binding screen; settings: rat cerebral cortex; Figure S6
T8 construct: Eurofins Cerep (contract screen)
T8 sequence (Q02294 whole entry): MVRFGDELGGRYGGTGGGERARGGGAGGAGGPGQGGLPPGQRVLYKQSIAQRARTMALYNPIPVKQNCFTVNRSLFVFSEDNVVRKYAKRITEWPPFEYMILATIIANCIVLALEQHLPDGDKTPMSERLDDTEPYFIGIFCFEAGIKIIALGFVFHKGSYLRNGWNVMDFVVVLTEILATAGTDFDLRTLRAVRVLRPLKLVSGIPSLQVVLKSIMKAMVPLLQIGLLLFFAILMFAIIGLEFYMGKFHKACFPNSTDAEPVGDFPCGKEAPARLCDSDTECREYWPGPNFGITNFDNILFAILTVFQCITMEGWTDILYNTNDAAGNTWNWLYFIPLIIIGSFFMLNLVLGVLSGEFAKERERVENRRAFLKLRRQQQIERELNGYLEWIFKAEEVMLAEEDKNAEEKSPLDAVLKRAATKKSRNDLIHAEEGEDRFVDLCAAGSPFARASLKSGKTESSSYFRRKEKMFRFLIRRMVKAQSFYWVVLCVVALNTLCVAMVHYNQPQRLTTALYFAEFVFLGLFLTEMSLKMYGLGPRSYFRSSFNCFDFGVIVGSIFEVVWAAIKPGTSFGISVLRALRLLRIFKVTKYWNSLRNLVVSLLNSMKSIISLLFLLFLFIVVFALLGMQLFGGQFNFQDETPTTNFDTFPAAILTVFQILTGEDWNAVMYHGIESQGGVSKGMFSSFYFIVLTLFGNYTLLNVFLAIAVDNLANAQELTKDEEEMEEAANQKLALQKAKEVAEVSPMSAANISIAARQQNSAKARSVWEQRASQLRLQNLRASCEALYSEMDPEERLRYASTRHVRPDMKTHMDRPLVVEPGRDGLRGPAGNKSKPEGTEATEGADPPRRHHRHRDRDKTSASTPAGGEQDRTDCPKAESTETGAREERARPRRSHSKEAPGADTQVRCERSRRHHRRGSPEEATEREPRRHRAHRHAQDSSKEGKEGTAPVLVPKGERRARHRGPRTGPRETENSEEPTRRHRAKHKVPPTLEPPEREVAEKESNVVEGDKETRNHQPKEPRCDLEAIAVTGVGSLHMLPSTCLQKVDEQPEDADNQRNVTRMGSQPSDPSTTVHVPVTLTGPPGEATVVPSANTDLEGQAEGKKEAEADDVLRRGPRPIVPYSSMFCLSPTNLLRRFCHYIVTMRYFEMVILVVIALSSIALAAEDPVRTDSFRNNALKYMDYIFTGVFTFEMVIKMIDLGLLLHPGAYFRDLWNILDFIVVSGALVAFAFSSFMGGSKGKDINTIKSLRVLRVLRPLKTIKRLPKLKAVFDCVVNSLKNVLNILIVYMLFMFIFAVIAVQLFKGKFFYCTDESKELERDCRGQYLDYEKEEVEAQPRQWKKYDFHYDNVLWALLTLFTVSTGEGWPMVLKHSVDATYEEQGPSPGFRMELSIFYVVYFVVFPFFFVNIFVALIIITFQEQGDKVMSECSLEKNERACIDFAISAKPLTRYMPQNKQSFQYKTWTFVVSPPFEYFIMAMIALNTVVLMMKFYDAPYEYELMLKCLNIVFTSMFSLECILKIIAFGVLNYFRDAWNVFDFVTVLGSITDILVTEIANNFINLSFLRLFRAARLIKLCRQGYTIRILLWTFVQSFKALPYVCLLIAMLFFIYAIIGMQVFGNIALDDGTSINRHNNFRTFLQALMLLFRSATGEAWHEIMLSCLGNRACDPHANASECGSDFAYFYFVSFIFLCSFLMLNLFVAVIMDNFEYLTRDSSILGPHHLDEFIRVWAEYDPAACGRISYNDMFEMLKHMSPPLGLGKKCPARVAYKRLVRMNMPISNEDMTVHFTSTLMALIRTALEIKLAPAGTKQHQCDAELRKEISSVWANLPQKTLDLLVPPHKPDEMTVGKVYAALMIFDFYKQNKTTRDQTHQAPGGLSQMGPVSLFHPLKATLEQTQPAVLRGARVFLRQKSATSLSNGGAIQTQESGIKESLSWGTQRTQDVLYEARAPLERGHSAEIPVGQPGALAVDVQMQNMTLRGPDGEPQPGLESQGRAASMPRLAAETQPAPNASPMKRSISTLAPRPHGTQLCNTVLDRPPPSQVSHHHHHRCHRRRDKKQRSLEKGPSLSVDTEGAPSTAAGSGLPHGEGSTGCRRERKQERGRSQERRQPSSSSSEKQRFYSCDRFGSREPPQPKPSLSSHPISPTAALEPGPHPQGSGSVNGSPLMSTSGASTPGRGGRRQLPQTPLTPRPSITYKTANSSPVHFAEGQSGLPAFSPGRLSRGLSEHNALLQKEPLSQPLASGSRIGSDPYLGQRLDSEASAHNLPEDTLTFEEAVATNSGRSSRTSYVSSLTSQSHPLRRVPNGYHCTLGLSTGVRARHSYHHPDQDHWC
T8 sequence (P54287 whole entry partner): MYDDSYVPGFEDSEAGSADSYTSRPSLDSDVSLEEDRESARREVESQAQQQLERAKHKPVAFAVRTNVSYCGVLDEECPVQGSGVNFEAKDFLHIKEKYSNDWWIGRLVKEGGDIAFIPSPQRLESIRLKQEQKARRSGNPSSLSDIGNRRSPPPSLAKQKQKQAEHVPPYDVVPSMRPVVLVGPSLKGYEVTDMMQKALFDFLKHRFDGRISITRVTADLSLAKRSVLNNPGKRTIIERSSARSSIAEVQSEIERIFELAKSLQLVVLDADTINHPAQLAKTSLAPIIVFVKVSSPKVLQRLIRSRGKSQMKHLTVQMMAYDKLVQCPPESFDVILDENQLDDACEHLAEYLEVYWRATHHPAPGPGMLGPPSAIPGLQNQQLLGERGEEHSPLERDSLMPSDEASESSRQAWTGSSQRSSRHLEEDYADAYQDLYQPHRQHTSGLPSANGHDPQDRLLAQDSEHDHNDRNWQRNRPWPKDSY
T8 sequence (P54290 25-944 partner limits assumed): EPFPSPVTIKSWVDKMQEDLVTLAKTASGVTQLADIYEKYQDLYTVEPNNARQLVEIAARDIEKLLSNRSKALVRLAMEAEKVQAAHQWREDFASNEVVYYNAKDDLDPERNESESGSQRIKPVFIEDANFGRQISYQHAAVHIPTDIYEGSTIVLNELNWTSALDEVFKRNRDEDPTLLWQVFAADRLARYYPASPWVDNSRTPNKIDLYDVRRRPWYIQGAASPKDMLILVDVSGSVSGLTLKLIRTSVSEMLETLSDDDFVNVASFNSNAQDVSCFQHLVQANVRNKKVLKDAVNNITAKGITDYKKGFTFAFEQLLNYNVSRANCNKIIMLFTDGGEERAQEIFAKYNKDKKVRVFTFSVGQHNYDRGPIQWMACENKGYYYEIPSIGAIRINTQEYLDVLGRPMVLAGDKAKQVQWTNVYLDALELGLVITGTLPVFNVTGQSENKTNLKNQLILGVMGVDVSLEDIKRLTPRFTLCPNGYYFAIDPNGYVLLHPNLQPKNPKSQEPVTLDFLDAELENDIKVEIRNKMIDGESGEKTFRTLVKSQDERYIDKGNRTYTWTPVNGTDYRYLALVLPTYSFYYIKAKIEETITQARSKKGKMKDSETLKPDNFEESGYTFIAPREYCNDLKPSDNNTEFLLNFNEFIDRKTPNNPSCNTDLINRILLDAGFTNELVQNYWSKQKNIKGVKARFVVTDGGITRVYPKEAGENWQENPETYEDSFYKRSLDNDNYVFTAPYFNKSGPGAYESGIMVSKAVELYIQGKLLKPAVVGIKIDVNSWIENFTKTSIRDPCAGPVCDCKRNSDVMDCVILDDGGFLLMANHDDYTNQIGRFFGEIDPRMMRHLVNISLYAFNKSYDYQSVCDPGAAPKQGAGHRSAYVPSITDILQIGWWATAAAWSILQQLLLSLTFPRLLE
T8 sequence (P54290 945-1091 partner limits assumed): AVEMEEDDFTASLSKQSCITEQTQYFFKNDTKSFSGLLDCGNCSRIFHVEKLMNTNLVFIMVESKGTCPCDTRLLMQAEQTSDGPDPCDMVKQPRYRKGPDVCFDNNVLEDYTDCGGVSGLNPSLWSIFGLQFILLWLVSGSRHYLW
Description: as §1

[12] = biological target: T9, D1-dopamine receptors (Homo sapiens, UniProt P21728); test: Eurofins Cerep radioligand binding screen; settings: 10 μM
T9 construct: Eurofins Cerep; host or cells: cell membrane homogenates
Description: as §1

[13] = test system: voltage-gated sodium channels; test: Eurofins Cerep radioligand binding screen; settings: 10 μM
Description: as §1

**Q.** With mitragynine as the substance, how does the “Effect on forskolin-stimulated cAMP, human α2AR” value ([1]; agonist mode, CHO-K1 cells) read?
**A.** did not impact forskolin-stimulated cAMP accumulation

**Q.** And the Kb ([1]; read-out: Kb, antagonist, cAMP, human α2AR, antagonism of clonidine, Gaddum-Schild analysis of first plateau)?
**A.** 4.17 µM

**Q.** What about the “pERK-stimulating effect in Gαq/11 knockout HEK293 cells” value ([2]; 1 μM, 5 min, vs CRISPR scrambled) of the same substance?
**A.** abolished

**Q.** What about the “pERK-stimulating effect with 100 nM atipamezole cotreatment” value ([2]; HEK293) of the same substance?
**A.** did not affect

**Q.** What about the “pERK-stimulating effect with 100 nM prazosin cotreatment” value ([2]; HEK293, CLON and ISO 1 μM, mitragynine 1 μM) of the same substance?
**A.** abolished

**Q.** What about the Kb ([3]; read-out: Kb, antagonist, β-arrestin, antagonist mode vs EC80 (0.01 μM) UK 14,304, Cheng–Prusoff) of the same substance?
**A.** 5.01 µM

**Q.** What about the “β-arrestin2 recruitment, agonist mode” value ([3]; α2AR-expressing CHO-K1 cells) of the same substance?
**A.** did not recruit β-arrestin2

**Q.** And the “Effect on forskolin-stimulated cAMP, rat α2AR” value [4]?
**A.** did not decrease forskolin-stimulated cAMP accumulation

**Q.** And the “Inhibition of radioligand binding, serotonin transporter” value [5]?
**A.** ~51%

**Q.** What about the “Inhibition of radioligand binding, D2-dopamine receptors” value [6] of the same substance?
**A.** ~70%

**Q.** What about the “Inhibition of specific radioligand binding, β2-adrenoceptors” value [7] of the same substance?
**A.** > 60%

**Q.** What about the “Inhibition of radioligand binding, D3-dopamine receptors” value [8] of the same substance?
**A.** ~57%

**Q.** What about the “Inhibition of radioligand binding, hERG potassium channels” value [9] of the same substance?
**A.** ~51%

**Q.** And the “Affinity at L-type Ca2+ channels” value [10]?
**A.** no appreciable affinity

**Q.** And the “Affinity at N-type Ca2+ channels” value [11]?
**A.** no appreciable affinity

**Q.** And the “Inhibition of radioligand binding, D1-dopamine receptors” value [12]?
**A.** ~73%

**Q.** What about the “Inhibition of radioligand binding, voltage-gated sodium channels” value [13] of the same substance?
**A.** ~71%
